The results in this text go back to paper PMC11869560, “Anticancer and cancer preventive activities of shogaol and curcumin from Zingiberaceae family plants in KG-1a leukemic stem cells” (BMC Complementary Medicine and Therapies, 2025).

Molecules are shown by their SMILES. ≈ marks a conversion by molar mass, not a printed value.

Assay [1] deals with WT1 protein expression in KG-1a cells. Put plainly: WT1 protein expression in KG-1a cells by Western blotting. The class given is cell-based, human. Here is the method:
(§1) KG-1a cells (1.5 × 10^5 cells/mL) were treated with compounds or extracts at different incubation times. Then, the cells were harvested and the whole proteins were extracted using a RIPA buffer (25 mM Tris-base, pH 7.6, 0.1% SDS, 1% Triton X-100, 150 mM NaCl, and 1 mM EDTA). The protein concentration was measured using the Folin-Lowry or Bradford assay. The whole protein lysates (30 µg/lane) were then separated through 7.5% SDS-PAGE under reducing conditions and then transferred to PVDF membranes. The membranes were blocked in 5% skim milk in PBS, pH 7.4 at RT for 2 h, then, target proteins were probed with specific primary antibodies (anti-WT1, anti-CD34, anti-GAPDH, anti-cleaved caspase-3, anti-cleaved PARP, anti-phospho-Akt, anti-phospho-c-Jun, anti-phospho-SAPK/JNK, and anti-YAP/TAZ) indicated in Table S10 which diluted at a ratio of 1:1,000 in PBS, pH 7.4 at RT for 2 h. After incubation, the membranes were rinsed 6 times with 0.1% Tween-20 (Sigma-Aldrich, MA, USA) in PBS, pH 7.4 (PBS-T), each time for 5 min. The reaction was followed by HRP-conjugated secondary antibody at 1:20,000 dilution in PBS, pH 7.4 at RT for 2 h, then, the membranes were rinsed 6 times for 5 min each with PBS-T. The proteins were shown using Immobilon Forte Western HRP substrate (Millipore, MA, USA). Finally, the protein band signal was quantified by using a scan densitometer (Bio-Rad Laboratories, CA, USA).
(In general: A western blot detects proteins with antibodies after separation by electrophoresis.)

Assay [2] relates to CD34 protein expression in KG-1a cells. Put plainly: CD34 protein expression in KG-1a cells by Western blotting. The class given is cell-based, human. The conditions noted are these: IC20 concentrations, 48 h, normalized to GAPDH. Here is the method: as §1
The subject of assay [3] is TAZ protein expression in KG-1a cells. Description: TAZ protein expression in KG-1a cells by Western blotting. The class given is cell-based, human. The conditions noted are these: IC50 concentrations, 0–12 h. Here is the method:
as §1, with “The reaction was followed by HRP-conjugated secondary antibody at 1:20,000 dilution in PBS, pH 7.4 at RT for 2 h, then, the membranes were rinsed 6 times for 5 min each with PBS-T. The proteins were shown using Immobilon Forte Western HRP substrate (Millipore, MA, USA).” left out

For assay [4], the system named is KG-1a cells. Put plainly: Trypan blue exclusion test, cell numbers of KG-1a cells. The class given is cell-based, human. The conditions noted are these: IC20 concentrations, 48 h. Here is the method: This test was used to confirm the cytotoxicity of the test samples. The cancer cells after exposure to crude ethanolic extracts and active compounds for 48 h were harvested and washed with ice-cold PBS, pH 7.4 for 3 times. Then, the cells were resuspended with PBS, pH 7.4. The cell suspensions were diluted with PBS, pH 7.4 at the appropriate dilution before being mixed with 0.2% trypan blue solution at 1:2 dilution for cell count on a hemocytometer. From this test, the viable cells and the dead cells could also be obviously detected.
This test was used to confirm the cytotoxicity of crude ethanolic extracts and active compounds. KG-1a cells after exposure to crude ethanolic extracts and active compounds for 48 h were harvested and washed with ice-cold PBS, pH 7.4 for 3 times. Then, the cells were resuspended with PBS, pH 7.4. The cell suspensions were diluted with PBS, pH 7.4 at the appropriate dilution before being mixed with 0.2% trypan blue solution at 1:2 dilution for cell count on a hemocytometer. From this test, the viable cells and the dead cells could also be obviously detected.

The subject of the next assay is RAW264.7 cells. Description: Cytotoxicity (IC20, cell viability) in RAW264.7 cells. The class given is cell-based. The conditions noted are these: Mus musculus, RAW264.7; incubation for 48 h; read-out: IC20 RAW264.7 (inhibitory concentration at 20% growth).
Assay [5] concerns p-c-Jun and p-SAPK/JNK in KG-1a cells. Description: p-c-Jun and p-SAPK/JNK in KG-1a cells by Western blotting. In kind it is cell-based, human. Conditions: IC50 concentration, 6 h. Here is the method:
as §1, with “The reaction was followed by HRP-conjugated secondary antibody at 1:20,000 dilution in PBS, pH 7.4 at RT for 2 h, then, the membranes were rinsed 6 times for 5 min each with PBS-T. The proteins were shown using Immobilon Forte Western HRP substrate (Millipore, MA, USA).” left out, “USA). […]” for “USA).”

The test system of assay [6] is KG-1a cells. Description: Cell cycle and apoptosis (sub-G1) assay by flow cytometry in KG-1a cells. Conditions: 48 h; for change of cell cycle phase population compared to VC: IC20 concentrations; for G2/M phase population: IC50 concentrations. In kind it is cell-based, human. Here is the method:
After treating KG-1a cells with active compounds at various concentrations for 48 h, the cells were pulsed with 10 µM BrdU (Sigma-Aldrich, MA, USA) for 20 min at 37 °C in an incubator with 5% CO2. Subsequently, the cells were harvested, washed with ice-cold PBS, pH 7.4 three times, and then fixed with 70% ethanol in PBS, pH 7.4 at −30 °C. Following fixation, the cells were washed and resuspended in 2 N HCl/0.5% Triton X-100 for 30 min at room temperature (RT). Then, 0.1 M sodium tetraborate decahydrate was added for 2 min at RT to neutralize the acid. Subsequently, the cells were stained with FITC-anti-BrdU antibody for 30 min at RT. After washing, the cells were resuspended in propidium iodide (PI) (Dojindo, Kumamoto, Japan) in PBS, pH 7.4 at a ratio of 1:1,000. The cell cycle phases were detected using a flow cytometer (CytoFLEX S, Beckman Coulter, CA, USA) and analyzed with the CytExpert program (Beckman Coulter, CA, USA).
The flow cytometry data were analyzed to assess both apoptosis and cell cycle distribution. Apoptosis was evaluated by determining the percentage of cells in the sub-G1 phase using the Nicoletti assay. For cell cycle analysis, populations in the G1, S, and G2/M phases were calculated after excluding the sub-G1 population to avoid interference from apoptotic cells, allowing for a clearer assessment of cell cycle arrest in different phases. Data were presented in separate graphs for the sub-G1 population and cell cycle phase distributions.

Assay [7] has as its system cleaved caspase-3 and PARP in KG-1a cells. Description: Cleaved caspase-3 and cleaved PARP in KG-1a cells by Western blotting. Conditions: IC50 concentrations (curcumin 10 µg/mL, shogaol 3 µg/mL, nocodazole 10 ng/mL), 0–12 h. The class given is cell-based, human. Here is the method: as §1
Where [8] appears, read: IC20 concentrations, 48 h, normalized to GAPDH.
[9] abbreviates: IC20 concentration (nocodazole 6 ng/mL, curcumin 3 µg/mL, shogaol 0.12 µg/mL).
[10] abbreviates: higher concentrations than IC20.

For `CCCCC/C=C/C(=O)CCc1ccc(O)c(OC)c1` [Shogaol, shogaol], the “decrease of WT1 protein level compared to VC” value in assay [1] (setting [8]) is reported as 30.71 ± 3.90%; in assay [1] (IC50 concentration, 3 h), 22.58 ± 3.99%. Also, in assay [2], the “decrease of CD34 protein level compared to VC” value came out at 35.93 ± 3.70%. In addition, in assay [3], the “effect on TAZ protein abundance” value was “no significant change in its abundance was observed”. Also, the “decrease of total cell number compared to VC” value with KG-1a cells [4] is recorded as 35.32 ± 6.10%. The “normalized viable cell counts” value in the assay with KG-1a cells [4] was 976.13 ± 13.69 × 10^3 cells per 1 million total cells. In the assay with RAW264.7 cells, the IC20 is 2.71 ± 0.62 µg/mL (≈ 9.81 µM). Also, the “p-c-Jun and p-SAPK/JNK levels compared to VC” value in assay [5] is listed as “increased”. In the assay on KG-1a cells [6] (1.5 µg/mL, sub-G1 excluded), the “decrease of S phase population” value was 40.56 ± 3.82%. For the same compound, the “effect on sub-G1 population compared to VC” value with KG-1a cells [6] (setting [9]) is reported as “did not significantly increase the sub-G1 population”; in the assay on KG-1a cells [6] (setting [10]), “significant increases in the sub-G1 population”. For the same compound, the “change of cell cycle phase population compared to VC” value in the assay with KG-1a cells [6] is recorded as “neither curcumin nor shogaol induced significant changes in the cell cycle phase population”. The G2/M phase population in the assay on KG-1a cells [6] (sub-G1 excluded) is given as 31.38 ± 1.60%. For the same compound, the “time to activation of cleaved caspase-3 and PARP” value in assay [7] amounted to 3 h.

Turning to `COc1cc(/C=C/C(=O)CC(=O)/C=C/c2ccc(O)c(OC)c2)ccc1O` [Curcumin, curcumin], the “decrease of WT1 protein level compared to VC” value in assay [1] (setting [8]) is reported as 44.05 ± 9.81%; in assay [1] (IC50 concentration, 6 h) it was 77.01 ± 8.80%. Further, the “decrease of CD34 protein level compared to VC” value in assay [2] is recorded as 29.29 ± 2.43%. In addition, the “effect on TAZ protein abundance” value in assay [3] was “no significant change in its abundance was observed”. The “decrease of total cell number compared to VC” value with KG-1a cells [4] is 40.75 ± 12.78%. Further, in the assay with KG-1a cells [4], the “normalized viable cell counts” value was 954.40 ± 3.19 × 10^3 cells per 1 million total cells. For the same compound, the IC20 in the assay with RAW264.7 cells came out at 2.08 ± 0.15 µg/mL (≈ 5.65 µM). For the same compound, the “p-c-Jun and p-SAPK/JNK levels compared to VC” value in assay [5] is “increased”. The “effect on sub-G1 population compared to VC” value is “did not significantly increase the sub-G1 population” in the assay on KG-1a cells [6] (setting [9]) and “significant increases in the sub-G1 population” in the assay with KG-1a cells [6] (setting [10]). Further, in the assay on KG-1a cells [6], the “change of cell cycle phase population compared to VC” value is recorded as “neither curcumin nor shogaol induced significant changes in the cell cycle phase population”. This compound also came in with a G2/M phase population in the assay with KG-1a cells [6] (sub-G1 excluded) of 43.66 ± 6.75%. In assay [7], the “time to activation of cleaved caspase-3 and PARP” value turned out to be 6 h.
